Test results from patent EP2197879B1, “C7-SUBSTITUTED CAMPTOTHECIN ANALOGS” (priority 2007, dated 2009).
Read-outs that look alike come from different tables or passages of the source.

Assays:
[1] = tested on: A2780/WT (wild-type) cells; assay: Sulforhodamine B (SRB) cytotoxicity assay in A2780/WT cells; type: cell-based
Experimental: (§1) Each of the testing conditions used in this study in both A2780/WT (wild-type) and A2780/DX5 cells were repeated in five to fifteen experiments that were performed on separate days. Each experiment consisted of one microtiter plate with at least eight individual assays of a given drug treatment condition on the plate. The sulforhodamine B (SRB) assay was used to assess cytotoxicity and absorbance at 570 nm (A570) in order to calculate the percentage of cell control (or percent cell survival) for the various treatment conditions in the plate wells.
(§2) Roswell Park Memorial Institute (RPMI 1640) medium, fetal bovine serum (FBS), and L-glutamine were purchased from Gibco BRL. Drugs were dissolved in sterile dimethylsulfoxide (DMSO), from American Type Culture Collection (ATCC) for stock solutions (2.5 to 5.0 mM). Subsequent dilutions were made using cell culture medium (prior to adding the drug to cells). SRB was purchased from Sigma and dissolved in 1.0 percent acetic acid. Trichloroacetic acid was purchased from VWR International.
(§3) Cells were manipulated in a Class IIA/B3 Biological Safety Cabinet (Forma Scientific) and maintained at 37°C in a humidified atmosphere containing 5% CO2 in a water-jacketed cell culture incubator (Forma Scientific). Cells were counted using a Coulter-Z1 counter (Beckman-Coulter). Following drug treatment, plates were washed using a Biomek 2000 station (Beckman) and, following exposure to SRB dye, plates were washed using an automated plate washer (Model EL404, Bio-Tek Instruments). Percentage of control was correlated to A570 values and determined using a Model EL800 plate reader (Bio-Tek Instruments).
(§4) Population doubling times for the two cell lines used in this study encompassed a total of five cell doublings corresponding to approximately 5 days for A2780/WT and A2780/DX5 cells. A2780/WT and A2780/DX5 cells were cultured in RPMI 1640 medium supplemented with 10% fetal bovine serum and 1 mM of L-glutamine. Both cell lines were maintained as monolayered cultures in T-25 or T-75 flasks and then seeded to microtiter plate wells for experiments described herein. Prior to SRB assays, cell viability was monitored by evaluation of microtiter plate wells. Dead cells detach and float while living cells remain attached to the bottom of the cell well.
(§5) The sulforhodamine B (SRB) cytotoxicity assay (see, Skehan P, et al., New colorimetric cytotoxicity assay for anticancer-drug screening. J. Natl. Cancer Inst. 82:1107-1112 (1990)) was used to determine the cytotoxic effects of BNP1350, SN-38, topotecan, 9-NH2-CPT, and 9-NO2-CPT on cell growth in vitro. Briefly, after the medium was aspirated from individual plate wells, trichloroacetic acid (100 µL of 10.0% solution) was added to each well, and the plates were incubated at 4°C for at least 1 hour. The plates were washed five-times with water using an automated microplate washer (Model EL 404, Bio-Tek Instruments), SRB solution (100 µL of 0.4 grams SRB dissolved in 100 mL 1.0 percent acetic acid) was added, and plates remained at room temperature for 15 minutes. The plates were then washed five-times using acetic acid (1.0%), air dried, and bound dye was solubilized in Tris base (150 µL, 10 mM). Plates were agitated (gently) for 5 minutes and the absorbance values of the SRB dye-protein adduct at a 570 nm wavelength (A570) were determined using an automated microtiter plate reader equipped with an A570 filter (Model EL800, BioTek Instruments). Table VII. Summary of Cytotoxicity Experiments in A2780/WT and DX5 Cells

A2780/DX5 cells = assay: Sulforhodamine B (SRB) cytotoxicity assay in A2780/DX5 cells; type: cell-based; conditions: for IC50 Ratio: A2780/DX5 versus A2780/WT
Experimental: as §1, §2, §3, §4, §5

[2] = Homo sapiens, A2780, read-out: A2780/ WT (IC50)
[3] = Homo sapiens, A2780, read-out: A2780/ DX5 (IC50)
[4] = SRB assay, A2780/WT cells, read-out: A2780/ WT (IC50)
[5] = SRB assay, A2780/DX5 cells, read-out: A2780/ DX5 (IC50)

SMILES | IC50 [1, 2] | IC50 Ratio (A2780/DX5 cells) | IC50 (A2780/DX5 cells; [3]) | IC50 [1, 4] | IC50 (A2780/DX5 cells; [5]) | IC50 ([1]; Homo sapiens, SRB assay, A2780/WT cells, read-out: A2780/ WT (IC50))
CC[C@@]1(O)C(=O)OCc2c1cc1n(c2=O)Cc2c-1nc1ccccc1c2CC[Si](C)(C)CI [Compound 4, 11-(4S)-[2-(iodomethyldimethylsilanyl)-ethyl]-4-ethyl-4-hydroxy-1,12-dihydro-4H-2-oxa-6,12a-diaza-dibenzo[b,h]fluorene-3,13-dione] | 0.0157 µM | 1.72 | 0.027 µM |  |  | 
CC[C@@]1(O)C(=O)OCc2c1cc1n(c2=O)Cc2c-1nc1ccccc1c2CC[Si](C)(C)CO [Compound 7, (4S)-4-ethyl-4-hydroxy-11-[2-(hydroxymethyldimethylsilanyl)-ethyl]-1,12-dihydro-4H-2-oxa-6,12a-diaza-dibenzo[b,h]fluorene-3,13-dione] | 0.0096 µM | 4.2 | 0.0403 µM |  |  | 
CC[C@@]1(O)C(=O)OCc2c1cc1n(c2=O)Cc2c-1nc1ccccc1c2CC[Si](C)(C)CSC[C@H](NC(=O)OC(C)(C)C)C(=O)OC [Compound 8, (2R, 4S)-2-tert-butoxycarbonylamino-3-({[2-(4-ethyl-4-hydroxy-3,13-dioxo-3,4,12,13-tetrahydro-1H-2-oxa-6,12a-diaza-dibenzo[b,h]fluoren-11-yl)-ethyl]-dimethyl-silanyl}-methylsulfanyl)-propionic acid methyl ester] | 0.0398 µM | 2.77 | 0.11 µM |  |  | 
CCC1(O)C(=O)OCc2c1cc1n(c2=O)Cc2c-1nc1ccccc1c2CC[Si](C)(C)CSC(C)=O (stereo not drawn) [Compound 9, thioacetic acid S-({[2-(4-ethyl-4-hydroxy-3.13-dioxo-3,4,12,13-tetrahydro-1H-2-oxa-6,12a-diaza-dibenzo[b,h]fluoren-11-yl)-ethyl]-dimethylsilanyl} -methyl) ester] |  | 1.94 |  | 0.0647 µM | 0.125 µM | 
CC[C@@]1(O)C(=O)OCc2c1cc1n(c2=O)Cc2c-1nc1ccccc1c2CC[Si](C)(C)CCCS(=O)(=O)c1ccccc1 [Compound 13, (4S)-11-{2-[(3-benzenesulfonylaronyl)-dimethylsilanyl]-ethyl}-4-ethyl-4-hydroxy-1,12-dihydro-4H-2-oxa-6,12a-diaza-dibenzo[b,h]fluorene-3,13-dione] |  | 6.3 |  | 0.0085 µM | 0.0535 µM | 
CC[C@@]1(O)C(=O)OCc2c1cc1n(c2=O)Cc2c-1nc1ccccc1c2CC[Si](C)(C)CCCn1ccnc1 [Compound 14, (4S)-4-ethyl-4-hydroxy-11-{2-[(3-imidazol-1-yl-propyl)-dimethyl-silanyl]-ethyl}-1,12-dihydro-4H-2-oxa-6,2a-diaza-dibenzo[b,h]fluorene-3,13-dione] |  | 14.8 |  | 0.0112 µM | 0.166 µM | 
CC[C@@]1(O)C(=O)OCc2c1cc1n(c2=O)Cc2c-1nc1ccccc1c2CC[Si](C)(C)CCCn1cncn1 [Compound 15, (4S)-11-{2-[dimethyl-(3-[1,2,4]triazol-1-yl-pronyl)-silanyl]-ethyl}-4-ethyl-4-hydroxy-1,12-dihydro-4H-2-oxa-6,12a-diaza-dibenzo[b,h]fluorene-3,13-dione] |  | 6.9 |  | 0.009 µM | 0.0624 µM | 
CC[C@@]1(O)C(=O)OCc2c1cc1n(c2=O)Cc2c-1nc1ccccc1c2CC[Si](C)(C)CCCN(C)C [Compound 16, (4S)-11-{2-[(3-dimethylaminopropyl)-dimethysilanyl]-ethyl}-4-ethyl-4-hydroxyl-1,12-dihydro-4H-2-oxa-6,12a-diaza-dibenzo[b,h]fluorene-3,13-dione] |  | 21.7 |  | 0.0236 µM | 0.512 µM | 
CC[C@@]1(O)C(=O)OCc2c1cc1n(c2=O)Cc2c-1nc1ccccc1c2CC[Si](C)(C)CCCn1ccccc1=O [Compound 17, (4S)-11-(2-{dimethyl-[3-(2-oxo-2H-pyridin-1-yl)-propyl]-silanyl}-ethyl)-4-ethyl-4-hydroxy-1,12-dihydro-4H-2-oxa-6,12a-diaza-dibenzo[b,h]fluorene-3,13-dione] | 0.016 µM | 11.6 | 0.186 µM |  |  | 
CC[C@@]1(O)C(=O)OCc2c1cc1n(c2=O)Cc2c-1nc1ccccc1c2CC[Si](C)(C)CCCP(=O)(OC)OC [Compound 18, (4S)-(3-{[2-(4-ethyl-4-hydroxy-3,13-dioxo-3,4,12,13-tetrahydro-1H-2-oxa-6,12a-diaza-dibenzo[b,h]fluoren-11-yl)-ethyl]-dimethylsilanyl}-propyl)-phosphonic acid dimethyl ester] | 0.0586 µM | 11.7 | 0.687 µM |  |  | 
CC[C@@]1(O)C(=O)OCc2c1cc1n(c2=O)Cc2c-1nc1ccccc1c2CC[Si](C)(C)CCCNC(=O)C(F)(F)F [Compound 23, (4S)-N-(3-{[2-(4-ethyl-4-hydroxy-3,13-dioxo-3,4,12,13-tetrahydro-1H-2-oxa-6,12a-diaza-dibenzo[b,h]fluoren-11-yl)-ethyl]-dimethyl-silanyl}-propyl)-2,2,2-trifiuoro-acetamide] |  | 3.3 |  | 0.0169 µM | 0.0558 µM | 
CC[C@@]1(O)C(=O)OCc2c1cc1n(c2=O)Cc2c-1nc1ccccc1c2CC[Si](C)(C)CCCNC(=O)Nc1ccccc1 [Compound 25, (4S)-1-(3-{[2-(4-ethyl-4-hydroxy-3,13-dioxo-3,14,12,13-tetrahydro-1H-2-oxa-6,12a-diaza-dibenzo[b,h]fluoren-11-yl)-ethyl]-dimethylsilanyl}-propyl)-3-phenylurea] |  | 6.5 |  | 0.0234 µM | 0.152 µM | 
CCN(CC)C(=O)NCCC[Si](C)(C)CCc1c2c(nc3ccccc13)-c1cc3c(c(=O)n1C2)COC(=O)[C@]3(O)CC [Compound 27, (4S)-1,1-diethyl-3-(3-{[2-(4-ethyl-4-hydroxy-3,13-dioxo-3,4,12,13-tetrahydro-1H-2-oxa-6,12a-diaza-dibenzo[b,h]fluoren-11-yl)-ethyl]-dimethyl-silanyl}-propyl)-urea] | 0.0652 µM | 7.21 | 0.47 µM |  |  | 
CC[C@@]1(O)C(=O)OCc2c1cc1n(c2=O)Cc2c-1nc1ccccc1c2CC[Si](C)(C)CCCNC(=O)N(C)C [Compound 29, (4S)-3-(3-{[2-(4-ethyl-4-hydroxy-3,13-dioxo-3,4,12,13-tetrahydro-1H-2-oxa-6,12a-diaza-dibenzo[b,h]fluoren-11-yl)-ethyl]-dimethylsilanyl}-propyl)-1,1-dimethylurea] | 0.0275 µM | 11.4 | 0.312 µM |  |  | 
CC[C@@]1(O)C(=O)OCc2c1cc1n(c2=O)Cc2c-1nc1ccccc1c2CC[Si](C)(C)Cn1ccccc1=O [Compound 31, (4S)-11-{2-[dimethyl-(2-oxo-2H-pyridin-1-ylmethyl)-silanyl]-ethyl}-4-ethyl-4-hydroxy-1,12-dihydro-4H-2-oxa-6,12a-diaza-dibenzo[b,h]fluorene-3,13-dione] | 0.0121 µM | 8.1 | 0.0985 µM |  |  | 
CC[C@@]1(O)C(=O)OCc2c1cc1n(c2=O)Cc2c-1nc1ccccc1c2CC[Si](C)(C)CN1CCCC1 [Compound 32, (4S)-11-[2-(dimethyl-pyrrolidin-1-ylmethyl-silanyl)-ethyl]-4-ethyl-4-hydroxy-1,12-dihydro-4H-2-oxa-6,12a-diaza-dibenzo[b,h]fluorene-3,13-dione] |  | 6.9 | 0.319 µM |  |  | 0.0464 µM
CC[C@@]1(O)C(=O)OCc2c1cc1n(c2=O)Cc2c-1nc1ccccc1c2CC[Si](C)(C)CSc1nccn1C [Compound 33, (4S)-11-{2-[dimethyl-(1-methyl-1H-imidazol-2-ylsulfanylmethyl)-silanyl]-ethyl}-4-ethyl-4-hydroxy-1,12-dihydro-4H-2-oxa-6,12a-diaza-dibenzo[b,h]fluorene-3,13-dione] | 0.0097 µM | 6.0 | 0.0578 µM |  |  | 
